In patent US10897901B2, “Herbicidal composition” (FMC Corporation, priority 2007, dated 2021):

System: yellow nutsedge (Cyperus esculentusi)
Test: Example 3 post-emergence greenhouse pot test, nutsedge
Type: in vivo
Description: Test compositions containing sulfentrazone (DISMISS™ Turf Herbicide), quniclorac, (DRIVE® 75 DF Herbicide) or mixture of sulfentrazone and quinclorac in a three to one ratio, prepared as described above, were diluted with water to provide the appropriate test rate concentrations. A nonionic surfactant (0.25%) was added to each test solution.
The test weeds include Red River crabgrass (Digitaria ciliaris) and yellow nutsedge (Cyperus esculentusi).
For post-emergence testing, three disposable 3 inch square pots for each rate of application of each herbicide were filled with a soil, comprised of peat moss, vermiculite, bark ash, pine bark, limestone and a wetting agent, to which 8 to 10 seeds were planted. The pots were placed in a greenhouse and watered daily, thus allowing the seeds to germinate and the foliage to develop.
Pots designated for treatment were placed on a conveyor belt and the conveyor belt fed under a spray nozzle mounted about ten inches above the foliage. The spray of herbicidal solution was commenced and once stabilized; the pots were passed under the spray at a speed to receive a coverage equivalent of 30 gallons per acre. The application rates are those shown in Table 3 below for the individual herbicidal solutions and the mixture of sulfentrazone and quinclorac. The post-emergence pots were immediately placed in the green-house and not watered until 24 hours after treatment with the test solution. Thereafter they were regularly watered at ground level. The control of weeds was evaluated in each experimental test from 1 to 22 days after treatment (DAT). The results, shown as an average of the replications, were compared with results observed in untreated control pots in the same tests.
Percent control was determined by a method similar to the 0 to 100 rating system disclosed in “Research Methods in Weed Science,” 2nd ed., B. Truelove, Ed.; Southern Weed Science Society; Auburn University, Auburn, Ala., 1977.

[1] = 1-5 leaf stage, 7 days old, 0.375 lb ai/acre, 1 DAT
[2] = 1-5 leaf stage, 7 days old, 0.375 lb ai/acre, 3 DAT
[3] = 1-5 leaf stage, 7 days old, 0.375 lb ai/acre, 7 DAT
[4] = 1-5 leaf stage, 7 days old, 0.375 lb ai/acre, 14 DAT
[5] = 1-5 leaf stage, 7 days old, 0.375 lb ai/acre, 21 DAT
[6] = 5-7 leaves, cut to 6 cm tall, 28 days old, 0.375 lb ai/acre, 1 DAT
[7] = 5-7 leaves, cut to 6 cm tall, 28 days old, 0.375 lb ai/acre, 3 DAT
[8] = 5-7 leaves, cut to 6 cm tall, 28 days old, 0.375 lb ai/acre, 7 DAT
[9] = 5-7 leaves, cut to 6 cm tall, 28 days old, 0.375 lb ai/acre, 14 DAT
[10] = 5-7 leaves, cut to 6 cm tall, 28 days old, 0.375 lb ai/acre, 21 DAT

Cc1nn(-c2cc(NS(C)(=O)=O)c(Cl)cc2Cl)c(=O)n1C(F)F [A, N-[2,4-dichloro-5-[4-(difluoromethyl)-4,5-dihydro-3-methyl-5-oxo-1H-1,2,4-triazol-1-yl]phenyl]methanesulfonamide]
Percent Control (1-5 leaf stage, 7 days old, 0.125 lb ai/acre, 1 DAT): 50%
Percent Control (1-5 leaf stage, 7 days old, 0.125 lb ai/acre, 3 DAT): 50%
Percent Control (1-5 leaf stage, 7 days old, 0.125 lb ai/acre, 7 DAT): 63%
Percent Control (1-5 leaf stage, 7 days old, 0.125 lb ai/acre, 14 DAT): 70%
Percent Control (1-5 leaf stage, 7 days old, 0.125 lb ai/acre, 21 DAT): 67%
Percent Control (1-5 leaf stage, 7 days old, 0.25 lb ai/acre, 1 DAT): 70%
Percent Control (1-5 leaf stage, 7 days old, 0.25 lb ai/acre, 3 DAT): 85%
Percent Control (1-5 leaf stage, 7 days old, 0.25 lb ai/acre, 7 DAT): 77%
Percent Control (1-5 leaf stage, 7 days old, 0.25 lb ai/acre, 14 DAT): 68%
Percent Control (1-5 leaf stage, 7 days old, 0.25 lb ai/acre, 21 DAT): 50%
Percent Control [1]: 75%
Percent Control [2]: 91%
Percent Control [3]: 95%
Percent Control [4]: 73%
Percent Control [5]: 70%
Percent Control (5-7 leaves, cut to 6 cm tall, 28 days old, 0.125 lb ai/acre, 1 DAT): 0%
Percent Control (5-7 leaves, cut to 6 cm tall, 28 days old, 0.125 lb ai/acre, 3 DAT): 80%
Percent Control (5-7 leaves, cut to 6 cm tall, 28 days old, 0.125 lb ai/acre, 7 DAT): 85%
Percent Control (5-7 leaves, cut to 6 cm tall, 28 days old, 0.125 lb ai/acre, 14 DAT): 70%
Percent Control (5-7 leaves, cut to 6 cm tall, 28 days old, 0.125 lb ai/acre, 21 DAT): 60%
Percent Control (5-7 leaves, cut to 6 cm tall, 28 days old, 0.25 lb ai/acre, 1 DAT): 0%
Percent Control (5-7 leaves, cut to 6 cm tall, 28 days old, 0.25 lb ai/acre, 3 DAT): 75%
Percent Control (5-7 leaves, cut to 6 cm tall, 28 days old, 0.25 lb ai/acre, 7 DAT): 80%
Percent Control (5-7 leaves, cut to 6 cm tall, 28 days old, 0.25 lb ai/acre, 14 DAT): 80%
Percent Control (5-7 leaves, cut to 6 cm tall, 28 days old, 0.25 lb ai/acre, 21 DAT): 90%
Percent Control [6]: 0%
Percent Control [7]: 90%
Percent Control [8]: 90%
Percent Control [9]: 90%
Percent Control [10]: 90%

O=C(O)c1c(Cl)ccc2cc(Cl)cnc12 [B, 3,7-dichloro-8-quinolinecarboxylic acid]
Percent Control [1]: 0%
Percent Control [2]: 0%
Percent Control [3]: 0%
Percent Control [4]: 0%
Percent Control [5]: 0%
Percent Control (1-5 leaf stage, 7 days old, 0.75 lb ai/acre, 1 DAT): 0%
Percent Control (1-5 leaf stage, 7 days old, 0.75 lb ai/acre, 3 DAT): 0%
Percent Control (1-5 leaf stage, 7 days old, 0.75 lb ai/acre, 7 DAT): 0%
Percent Control (1-5 leaf stage, 7 days old, 0.75 lb ai/acre, 14 DAT): 0%
Percent Control (1-5 leaf stage, 7 days old, 0.75 lb ai/acre, 21 DAT): 0%
Percent Control (1-5 leaf stage, 7 days old, 1.0 lb ai/acre, 1 DAT): 0%
Percent Control (1-5 leaf stage, 7 days old, 1.0 lb ai/acre, 3 DAT): 0%
Percent Control (1-5 leaf stage, 7 days old, 1.0 lb ai/acre, 7 DAT): 0%
Percent Control (1-5 leaf stage, 7 days old, 1.0 lb ai/acre, 14 DAT): 0%
Percent Control (1-5 leaf stage, 7 days old, 1.0 lb ai/acre, 21 DAT): 0%
Percent Control [6]: 0%
Percent Control [7]: 5%
Percent Control [8]: 5%
Percent Control [9]: 5%
Percent Control [10]: 0%
Percent Control (5-7 leaves, cut to 6 cm tall, 28 days old, 0.75 lb ai/acre, 1 DAT): 0%
Percent Control (5-7 leaves, cut to 6 cm tall, 28 days old, 0.75 lb ai/acre, 3 DAT): 0%
Percent Control (5-7 leaves, cut to 6 cm tall, 28 days old, 0.75 lb ai/acre, 7 DAT): 2%
Percent Control (5-7 leaves, cut to 6 cm tall, 28 days old, 0.75 lb ai/acre, 14 DAT): 2%
Percent Control (5-7 leaves, cut to 6 cm tall, 28 days old, 0.75 lb ai/acre, 21 DAT): 0%
Percent Control (5-7 leaves, cut to 6 cm tall, 28 days old, 1.0 lb ai/acre, 1 DAT): 0%
Percent Control (5-7 leaves, cut to 6 cm tall, 28 days old, 1.0 lb ai/acre, 3 DAT): 5%
Percent Control (5-7 leaves, cut to 6 cm tall, 28 days old, 1.0 lb ai/acre, 7 DAT): 5%
Percent Control (5-7 leaves, cut to 6 cm tall, 28 days old, 1.0 lb ai/acre, 14 DAT): 5%
Percent Control (5-7 leaves, cut to 6 cm tall, 28 days old, 1.0 lb ai/acre, 21 DAT): 0%
